Reference: patent US7863323B1, “Flavonols” (The University of Melbourne, priority 2006, dated 2011)
Entries after “also recorded” stand apart in the source; their conditions may differ. Like-named read-outs stand apart in the source and are kept apart here.

Assays:
[1] = Solubility of succinamic acid flavonols in 0.1 M Na2CO3 solution; type: physicochemical; settings: for maximum concentrations attained: in 0.1 M Na2CO3 solution; for solubility in comparison with the unmodified moiety: qualitative
Procedure: Acetylcholine perchlorate was obtained from BDH Chemicals (Poole, Dorset, England). Phenylephrine and propranolol was purchased from Sigma-Aldrich Pty. Ltd. (Castle Hill, NSW, Australia). DiOHF was purchased from Indofine Chemical Co. Inc. (Belle Mead, N.J., U.S.A.). All other flavonols were synthesized in this study. […] was purchased from Cayman Chemical (Ann Arbor, Mich., U.S.A.). All chemicals were dissolved in distilled water, except the following. DiOHF was dissolved in 10% dimethyl sulphoxide (DMSO), 90% methanol, with subsequent dilutions in 50% methanol (10^−3 M), and distilled water (10^−4-10^−7 M). Succinamic acid-substituted flavonols were dissolved in 0.1 M Na2CO3 as a stock solution (B and C at 10^−1 and D at 10^−2 M), and further diluted in distilled water as required.

[2] = system: superoxide (NADPH oxidase-driven) in isolated rat aortic rings; assay: Lucigenin-enhanced chemiluminescence assay of superoxide in isolated aortic rings; type: cell-based; settings: rat aortic rings incubated with NADPH; FIG. 2; compared with diOHF; qualitative
Procedure: Since the vascular activity of the synthesized flavonols was attenuated, it was of great interest to test these compounds for antioxidant activity. Antioxidant activity can be assessed in a tissue-based lucigenin-enhanced chemiluminescence assay. Isolated rat aortic rings were incubated with NADPH and the various flavonols. NADPH, a substrate for NADPH oxidase in the vasculature, increases superoxide production. Superoxide that is produced reacts with lucigenin, leading to the emission of photons, which can be quantified to give a measure of superoxide levels.
Superoxide concentrations were measured in isolated aortic rings by lucigenin-enhanced chemiluminescence. Prior to assaying, the aortic rings were incubated at 37° C. for 1 h in Krebs-EPES buffer containing DETCA (3×10^−5 M), which inactivates superoxide dismutase, NADPH (10^−4 M) and either vehicle, succinamic acid-substituted flavonol (10^−4 or 10^−5 M) or diOHF (10^−4 or 10^−5 M). Assay solutions consisting of lucigenin (5×10^−6 M), NADPH (10^−4 M) and either vehicle (DMSO), succinamic acid-substituted flavonol (10^−4 or 10^−5 M) or 3′,4′-dihydroxyflavonol (diOHF, 10^−4 or 10^−5 M), as a positive control, were prepared in Krebs-HEPES buffer [composition (mM): NaCl, 99.0; KCl, 4.7; KH2PO4, 1.0; MgSO4.7H2O, 1.2; glucose, 11.0; NaHCO3, 25.0; CaCl2.2H2O, 2.5; Na-HEPES, 20.0]. 300 μL aliquots of the assay solution were placed into separate wells on a 96-well Optiplate, which was loaded into a TopCount single photon counter (Packard Bioscience) to determine the background emission (12 cycles). After background counting was completed, one aortic ring was added per well, and photon emission was counted (12 cycles). Superoxide levels were reported as a percentage of photon emission for +NADPH control. At the conclusion of the assay, the aortic rings were dried for 48 h at 80° C. for normalization of superoxide production to dry tissue weight.
The results are expressed as the mean±s.e. mean and n indicates the number of experiments (rats). […]

[3] = system: rat isolated thoracic aorta (endothelium-intact aortic rings), PE-induced contractions; assay: Effect of flavonols on phenylephrine-induced vasoconstriction (organ bath); type: cell-based; settings: FIG. 1a, compared with diOHF, qualitative
From the text: (§1) Vascular activity can be tested in standard organ bath assays using rat isolated thoracic aorta. The synthesized flavonols were first assayed for their ability to inhibit contractions induced by phenylephrine (PE), since it has been previously shown that flavonols can act as functional antagonists of PE. Next, the efficacy of the various flavonols would be determined in a direct relaxation assay. […] It was expected that the flavonols should reduce the magnitude of PE-induced contractions in endothelium-intact aortic rings, thus reducing the maximum response (Rmax) for PE-induced contractions.
(§2) Male Sprague-Dawley rats (200-400 g) were euthanised by exposure to 80% CO2, 20% O2, and their chests opened to isolate the thoracic aortae. After the removal of superficial connective tissues, the aorta was cut into ring segments, of approximately 2-3 mm in length. The aortic rings were then mounted between two stainless steel wires, one of which was linked to an isometric force transducer connected to a chart recorder, and the other end anchored to a glass rod submerged in a standard 10 mL organ bath. The organ bath was filled with Krebs-bicarbonate solution [composition (mM): NaCl, 118.0; KCl, 4.7; KH2PO4, 1.2; MgSO4.7H2O, 1.2; glucose, 5.0; NaHCO3, 25.0; CaCl2.2H2O, 2.5]. The bath medium was maintained at 37° C., pH 7.4 and continuously aerated with 95% O2, 5% CO2.
Aortic rings were equilibrated for 1 h at a resting tension of 1 g, then were precontracted with an isotonic, high potassium physiological salt solution (KPSS) in which all of the NaCl of the normal Krebs solution was replaced with KCl (122.7 mM), so as to achieve maximal contraction. The solution was then washed out and replaced with normal Krebs solution. […]
Aortic rings were incubated with a β-adrenoceptor antagonist, propranolol (10^−5 M), and either vehicle or flavonol (10^−4-10^−5 M) for 15 min before cumulative doses of phenylephrine (10^−9-10^−4.5 M) were added to generate a concentration-response curve to phenylephrine. Contraction responses were expressed as a percentage of KPSS-induced tension.

[4] = system: rat isolated thoracic aorta (aortic rings); assay: Vasorelaxation (direct relaxation assay) in precontracted aortic rings; type: cell-based; settings: for vasorelaxation activity in the relaxation assay: FIG. 1b, qualitative; for Emax: read-out: Rmax (%) maximum response in the relaxation assay
From the text: as §1, §2
Aortic rings were equilibrated for 1 h at a resting tension of 1 g, then were precontracted with an isotonic, high potassium physiological salt solution (KPSS) in which all of the NaCl of the normal Krebs solution was replaced with KCl (122.7 mM), so as to achieve maximal contraction. The solution was then washed out and replaced with normal Krebs solution. After re-equilibration, the rings were submaximally contracted with phenylephrine (PE, 10^−8-10^−7 M) and endothelial integrity was tested by a single dose of acetylcholine (Ach, 10^−5 M). Only rings that responded to Ach (≧90% relaxation) were judged endothelium intact and were used in the subsequent experiments. The aortic rings were then re-equilibrated (15 min) before the subsequent experiment.
Aortic rings were precontracted submaximally with phenylephrine (10^−8-10^−7 M) and the thromboxane mimetic, 9,11-dideoxy-9α,11α-epoxymethano-prostaglandin F2α (U46619, 10^−10-10^−9 M) to approximately 50% of KPSS-induced contraction. After stabilization of the contraction, cumulative doses of the flavonol or vehicle (10^−10-10^−4 M) were added to generate a concentration-response curve. Relaxant responses were expressed as a percentage of the precontraction tension.
The results are expressed as the mean±s.e. mean and n indicates the number of experiments (rats). Relaxation concentration-response curves for diOHF were computer fitted to a sigmoidal curve using non-linear regression (Prism version 4) to enable calculation of pEC50 of the flavonols. […] Maximum relaxation responses were compared using a one way analysis of variance (ANOVA) with post-hoc multiple comparison using Newman-Keuls test. Superoxide levels were compared using a one way analysis of variance (ANOVA) with post hoc multiple comparison using Dunnett's test.

[5] = rat aortic rings precontracted with phenylephrine and U46619, percentage of precontraction tension, mean ± s.e. mean

Compound	maximum concentrations attained [1]	solubility in comparison with the unmodified moiety [1]	antioxidant activity (superoxide levels) [2]	inhibition of PE-induced contractions (vascular activity) [3]	vasorelaxation activity in the relaxation assay [4]	Emax [4, 5]	Emax ([4]; Rattus norvegicus)	EC50 ([4]; Rattus norvegicus, read-out: pEC50 (relaxation) (converted))
O=C(O)CCC(=O)Nc1ccc2oc(-c3ccc(O)cc3)c(O)c(=O)c2c1 [C, 4′-Hydroxy-6-(hydroxycarbonylethylcarbonylamino)flavonol]	10^−1 M	improved solubility	little effect	less effective than diOHF	weak vasorelaxation activity	80 ± 5%		
O=c1c(O)c(-c2ccc(O)c(O)c2)oc2ccccc12 [diOHF, 3′,4′-dihydroxyflavonol, reference compound]							105 ± 2%	4.68 µM
O=C(O)CCC(=O)Nc1ccc2oc(-c3ccccc3)c(O)c(=O)c2c1 [B, 6-(Hydroxycarbonylethylcarbonylamino)flavonol]	10^−1 M	improved solubility	moderate to good antioxidant activity	less effective than diOHF	weak vasorelaxation activity	47 ± 2%		
O=C(O)CCC(=O)Nc1ccc2oc(-c3ccc(O)c(O)c3)c(O)c(=O)c2c1 [D, 3′,4′-Dihydroxy-6-(hydroxycarbonylethylcarbonylamino)flavonol]	10^−2 M	improved solubility	moderate to good antioxidant activity; also recorded: superoxide levels were substantially reduced	less effective than diOHF; also recorded: vascular activity was completely abolished	slight contractions were observed at high concentrations	-25 ± 3%		
